According to ChEMBL document CHEMBL1152108, “Dual metalloprotease inhibitors. II. Effect of substitution and stereochemistry on benzazepinone based mercaptoacetyls” (Bioorg Med Chem Lett, 1994):

Tests used:
[1] = target: Neprilysin (Homo sapiens, UniProt P08473); assay: Inhibition of Neutral Endopeptidase (NEP); conditions: read-out: I50
[2] = target: Angiotensin-converting enzyme (Homo sapiens, UniProt P12821); assay: Inhibition of Angiotensin I converting enzyme; conditions: read-out: I50
[3] = test system: Rattus norvegicus; assay: Compound was tested in vivo for inhibition of Angiotensin I(AI) induced pressor response in normotensive rat after iv administration; type: functional
[4] = test system: Rattus norvegicus; assay: Maximal percentage inhibition of Angiotensin I(AI) induced pressor response in normotensive rat at 0.15 (umol/kg) (iv); type: functional

Sequence of Neprilysin (P08473 whole entry): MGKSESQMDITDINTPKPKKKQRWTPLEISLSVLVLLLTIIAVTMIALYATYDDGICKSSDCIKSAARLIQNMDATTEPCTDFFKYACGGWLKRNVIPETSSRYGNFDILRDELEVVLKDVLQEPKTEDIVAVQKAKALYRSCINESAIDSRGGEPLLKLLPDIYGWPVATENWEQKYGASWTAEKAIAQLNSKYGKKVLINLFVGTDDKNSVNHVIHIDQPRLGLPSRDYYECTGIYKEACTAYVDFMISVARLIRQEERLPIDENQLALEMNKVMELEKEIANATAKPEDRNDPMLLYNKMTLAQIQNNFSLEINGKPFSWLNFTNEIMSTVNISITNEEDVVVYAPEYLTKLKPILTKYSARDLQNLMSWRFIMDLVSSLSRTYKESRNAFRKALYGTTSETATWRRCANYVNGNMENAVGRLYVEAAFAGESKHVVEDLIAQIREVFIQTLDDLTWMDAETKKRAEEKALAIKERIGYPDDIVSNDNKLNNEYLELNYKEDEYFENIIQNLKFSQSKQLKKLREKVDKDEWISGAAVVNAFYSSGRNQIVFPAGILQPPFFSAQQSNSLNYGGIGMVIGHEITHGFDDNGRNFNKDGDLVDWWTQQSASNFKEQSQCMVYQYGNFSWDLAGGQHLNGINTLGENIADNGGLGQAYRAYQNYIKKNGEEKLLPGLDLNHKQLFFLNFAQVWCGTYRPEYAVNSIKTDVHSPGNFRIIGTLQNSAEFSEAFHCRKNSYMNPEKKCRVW
Sequence of Angiotensin-converting enzyme (P12821 whole entry): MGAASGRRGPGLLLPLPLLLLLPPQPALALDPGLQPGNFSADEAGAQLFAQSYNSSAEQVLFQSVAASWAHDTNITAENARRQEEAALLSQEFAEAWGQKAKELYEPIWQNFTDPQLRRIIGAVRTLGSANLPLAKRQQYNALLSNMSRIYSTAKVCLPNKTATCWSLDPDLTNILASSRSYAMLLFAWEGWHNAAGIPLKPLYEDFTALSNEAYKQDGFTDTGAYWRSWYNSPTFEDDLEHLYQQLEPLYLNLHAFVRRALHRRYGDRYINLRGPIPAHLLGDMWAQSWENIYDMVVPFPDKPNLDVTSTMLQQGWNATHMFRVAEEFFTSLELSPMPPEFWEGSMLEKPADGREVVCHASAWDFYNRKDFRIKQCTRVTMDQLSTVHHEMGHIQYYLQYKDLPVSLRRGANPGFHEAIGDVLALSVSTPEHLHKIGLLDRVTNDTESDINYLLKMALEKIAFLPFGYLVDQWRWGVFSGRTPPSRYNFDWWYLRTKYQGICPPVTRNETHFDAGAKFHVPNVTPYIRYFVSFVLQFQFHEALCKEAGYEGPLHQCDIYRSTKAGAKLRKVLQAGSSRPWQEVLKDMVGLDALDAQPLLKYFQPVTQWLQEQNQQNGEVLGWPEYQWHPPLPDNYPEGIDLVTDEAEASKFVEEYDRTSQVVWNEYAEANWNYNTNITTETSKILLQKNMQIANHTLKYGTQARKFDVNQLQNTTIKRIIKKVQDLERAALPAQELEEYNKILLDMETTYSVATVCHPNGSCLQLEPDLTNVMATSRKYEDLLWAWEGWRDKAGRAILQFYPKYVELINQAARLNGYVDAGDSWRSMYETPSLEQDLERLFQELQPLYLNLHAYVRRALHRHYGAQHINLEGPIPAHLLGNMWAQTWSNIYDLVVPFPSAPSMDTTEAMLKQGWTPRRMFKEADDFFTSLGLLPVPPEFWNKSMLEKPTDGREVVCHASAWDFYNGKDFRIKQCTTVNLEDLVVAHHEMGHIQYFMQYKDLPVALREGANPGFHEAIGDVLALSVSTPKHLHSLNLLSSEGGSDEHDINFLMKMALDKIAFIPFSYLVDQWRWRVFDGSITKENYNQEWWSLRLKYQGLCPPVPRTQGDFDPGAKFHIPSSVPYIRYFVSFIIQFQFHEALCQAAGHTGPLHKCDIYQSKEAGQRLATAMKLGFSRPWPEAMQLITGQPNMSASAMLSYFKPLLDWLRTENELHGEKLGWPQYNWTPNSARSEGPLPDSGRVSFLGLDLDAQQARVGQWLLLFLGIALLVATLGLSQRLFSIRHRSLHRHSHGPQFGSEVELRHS

Row | SMILES | IC50 [1] [nM] | IC50 [2] [nM] | ED50 [3] [µmol/kg] | Inhibition [4] [%]
1 | O=C(O)CN1C(=O)[C@@H](NC(=O)[C@@H](S)CC2CCCCC2)CCc2ccccc21 | 4260 | 22 | – | –
2 | C[C@H](S)C(=O)N[C@H]1CCc2ccccc2N(CC(=O)O)C1=O | 1850 | 24 | – | –
3 | CC(S)(Cc1ccccc1)C(=O)N[C@H]1CCc2ccccc2N(CC(=O)O)C1=O (stereo in doubt; form 1) | 865 | 183 | – | –
4 | CC(S)(Cc1ccccc1)C(=O)N[C@H]1CCc2ccccc2N(CC(=O)O)C1=O (stereo in doubt; form 2) | 2000 | 63 | – | –
5 | O=C(O)CN1C(=O)[C@H](NC(=O)[C@@H](S)Cc2ccccc2)CCc2ccccc21 | 560 | 306 | – | –

Continued by falling IC50 [1], values first:

Row | IC50 [1] [nM] | IC50 [2] [nM] | SMILES | ED50 [3] [µmol/kg] | Inhibition [4] [%]
6 | 1120 | 25 | O=C(O)CN1C(=O)C(NC(=O)[C@@H](S)Cc2ccccc2)CCCc2ccccc21 (stereo partly specified) | – | –
7 | 175 | 33 | O=C(O)CN1Cc2ccccc2C[C@H](NC(=O)[C@@H](S)Cc2ccccc2)C1=O | – | –
8 | 137 | 14 | C[C@H](NC(=O)[C@@H](S)Cc1ccccc1)C(=O)N(CC(=O)O)c1ccccc1 | 0.15 | 42
9 | 82 | 22 | O=C(O)CN1CCCC[C@H](NC(=O)[C@@H](S)Cc2ccccc2)C1=O | 0.83 | –
10 | 36 | 5.4 | CCCC[C@H](S)C(=O)N[C@H]1CCc2ccccc2N(CC(=O)O)C1=O | 0.06 | –
11 | 14 | 284 | O=C(O)CN1C(=O)[C@@H](NC(=O)[C@H](S)Cc2ccccc2)CCc2ccccc21 | – | –
12 | 7 | 6.3 | CC(C)C[C@H](S)C(=O)N[C@H]1CCc2ccccc2N(CC(=O)O)C1=O | 0.23 | –
13 | 6 | – | O=C(O)CN1C(=O)[C@@H](NC(=O)[C@@H](S)Cc2ccccc2)CCc2ccccc21 | 0.02 | –
